Reference: patent US20250120988A1, “SMALL MOLECULE COMPOUND FOR TREATING ISCHEMIC STROKE, ITS PREPARATION METHOD, AND APPLICATION” (SHANGHAI SIXTH PEOPLE'S HOSPITAL, priority 2023, published 2025)

Tests used:
GluN1+NR2B = biological target: T1, GluN1+NR2B (Homo sapiens, UniProt Q05586+Q13224); experiment: Whole-cell patch clamp, blocking of GluN1+NR2B NMDAR current in CHO cells; type: cell-based; settings: 100 μM NMDA and 1 μM glycine, read-out: IC50 of competitive antagonism against glutamate binding GluN1+NR2B currents
T1 construct: expressed in transfected cells; host or cells: CHO cells
T1 sequence (Q13224 27-1484, other chains not shown): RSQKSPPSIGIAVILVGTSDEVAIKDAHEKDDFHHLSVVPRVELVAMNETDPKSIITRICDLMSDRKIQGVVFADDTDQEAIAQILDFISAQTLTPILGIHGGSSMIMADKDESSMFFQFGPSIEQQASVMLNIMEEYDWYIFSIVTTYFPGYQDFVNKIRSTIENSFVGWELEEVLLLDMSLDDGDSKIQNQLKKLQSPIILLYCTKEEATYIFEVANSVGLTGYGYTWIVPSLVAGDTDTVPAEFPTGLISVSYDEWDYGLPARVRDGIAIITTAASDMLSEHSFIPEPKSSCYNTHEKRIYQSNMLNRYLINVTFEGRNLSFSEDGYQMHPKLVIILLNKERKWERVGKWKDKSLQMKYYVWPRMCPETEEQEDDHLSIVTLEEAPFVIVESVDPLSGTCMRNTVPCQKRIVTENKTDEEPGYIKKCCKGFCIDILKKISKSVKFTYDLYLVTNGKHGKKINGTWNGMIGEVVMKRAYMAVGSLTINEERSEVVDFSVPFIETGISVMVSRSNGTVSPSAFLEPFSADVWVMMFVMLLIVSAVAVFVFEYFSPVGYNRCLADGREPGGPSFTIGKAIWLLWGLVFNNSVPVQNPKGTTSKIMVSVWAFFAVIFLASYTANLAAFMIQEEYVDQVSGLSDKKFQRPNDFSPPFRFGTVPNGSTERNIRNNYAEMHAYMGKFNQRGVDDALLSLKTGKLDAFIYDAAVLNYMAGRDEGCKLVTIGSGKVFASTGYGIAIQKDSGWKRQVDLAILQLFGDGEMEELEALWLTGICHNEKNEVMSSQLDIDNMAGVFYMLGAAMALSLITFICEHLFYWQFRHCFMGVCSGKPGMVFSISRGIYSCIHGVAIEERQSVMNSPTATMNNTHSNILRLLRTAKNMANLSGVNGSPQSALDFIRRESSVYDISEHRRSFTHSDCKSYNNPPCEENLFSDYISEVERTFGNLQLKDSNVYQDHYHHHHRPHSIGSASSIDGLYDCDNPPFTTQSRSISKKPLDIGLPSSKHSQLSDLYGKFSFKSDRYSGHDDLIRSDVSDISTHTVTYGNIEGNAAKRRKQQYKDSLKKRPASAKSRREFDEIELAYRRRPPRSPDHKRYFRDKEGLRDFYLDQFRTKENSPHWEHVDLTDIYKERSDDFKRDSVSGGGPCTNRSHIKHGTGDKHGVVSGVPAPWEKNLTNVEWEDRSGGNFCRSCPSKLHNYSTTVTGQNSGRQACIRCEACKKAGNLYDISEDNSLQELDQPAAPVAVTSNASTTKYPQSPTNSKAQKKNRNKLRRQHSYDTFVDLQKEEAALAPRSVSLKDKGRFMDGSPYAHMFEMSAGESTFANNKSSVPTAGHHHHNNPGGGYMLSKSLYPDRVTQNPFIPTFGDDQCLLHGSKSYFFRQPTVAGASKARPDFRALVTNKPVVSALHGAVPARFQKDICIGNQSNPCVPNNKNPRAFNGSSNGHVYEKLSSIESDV
Protocol: Figure a illustrates LK-2 concentration-dependent blocking of signal of GluN1+GluN2A and GluN1+GluN2B subtypes of NMDAR currents (recorded from the same CHO cell) in patch clamp experiments, with 100 μM NDMA and 1 μM glycine used to activate NMDAR currents. LK-2 concentrations were 1, 10, 100, and 500 μM in sequence. Figure b illustrates the dose-response curves fitted based on the current amplitudes recorded in Figure a, with IC50 representing the half-maximal inhibitory concentration. Smaller IC50 values indicate stronger blocking effects of the compound.
(§1) [drawing 3] • 2. Electrophysiological experiments refer to the use of patch clamp techniques to overexpress ASICs (ASIC1a) and NMDARs (GluNR1+NR2A or GluNR1+NR2B) in CHO cell lines (Chinese hamster ovary cells), with the above-mentioned proteins carrying GFP green fluorescent protein for identification under fluorescence microscopy. The synthesized small molecules are separately tested for their blocking effects on the currents generated by the two types of receptors, and the IC50 values are calculated. • 2.1 The experimental steps of the membrane clamp technique are as follows.
Whole-cell patch clamp recordings were performed on neurons or CHO cells cultured in a cell-culture dish mounted on a fixed stage upright microscope. The recording electrode (resistance 4-6 MΩ) was made of 1.5 mm borosilicate glass. […]

ASIC1a = biological target: T2, ASIC1a (Homo sapiens, UniProt P78348); experiment: Whole-cell patch clamp, competitive blocking of glutamate-potentiated ASIC1a current in CHO cells; type: cell-based; settings: pH 7.0, 500 μM glutamate, read-out: IC50 of competitive antagonism against the glutamate binding ASIC1a current
T2 construct: expressed in transfected cells
T2 sequence (P78348 1-528): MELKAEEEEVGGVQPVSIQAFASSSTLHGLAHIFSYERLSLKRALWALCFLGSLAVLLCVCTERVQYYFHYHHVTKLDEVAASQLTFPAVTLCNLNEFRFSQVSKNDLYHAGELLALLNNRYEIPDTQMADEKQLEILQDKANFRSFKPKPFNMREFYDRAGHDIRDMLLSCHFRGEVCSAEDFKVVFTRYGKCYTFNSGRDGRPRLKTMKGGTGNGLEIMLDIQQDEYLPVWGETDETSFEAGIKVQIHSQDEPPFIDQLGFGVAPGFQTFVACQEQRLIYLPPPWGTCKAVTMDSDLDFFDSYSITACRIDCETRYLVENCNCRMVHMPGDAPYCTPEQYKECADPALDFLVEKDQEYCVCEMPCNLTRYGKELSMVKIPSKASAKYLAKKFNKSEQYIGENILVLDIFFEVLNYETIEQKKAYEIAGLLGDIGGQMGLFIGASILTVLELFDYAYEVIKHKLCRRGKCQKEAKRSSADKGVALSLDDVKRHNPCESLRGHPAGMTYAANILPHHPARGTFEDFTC
Protocol: Figure a illustrates the LK-2 concentration-dependent blocking of signal of ASIC1a current (recorded from the same CHO cell) activated at pH 7 in patch clamp experiments, with a glutamate concentration of 500 μM and LK-2 concentrations of 1, 10, 50, and 100 μM in sequence. […] Smaller values indicate stronger blocking effects of the compound.
as §1, with “follows. […]” for “follows.”
Chinese hamster ovary cells (CHO) and HEK293T cells (provided by the Chinese Academy of Sciences Stem Cell Bank) were cultured separately in F12 and DMEM media (Gibco) containing 10% FBS (Gibco). […] All experiments were performed 24-48 hours after transfection, and all culture dishes were washed three times with ECF before the experiment, and GFP-positive CHO cells were observed under a fluorescence microscope for patch clamp recording. […]

IC50 (GluN1+NR2B): 386 ± 109 µM | IC50 (ASIC1a): 6.6 ± 2.1 µM
Structure (SMILES): O=C(O)C1CN(C(c2ccccc2)P(=O)(O)O)CCN1 (centres unmarked) [LK-2]
